Earlier results in US6683065B1, “Method of treating body insect infestation” (Host Pharmaceuticals LLC, priority 1999, dated 2004).

Settings: at 20° C.

Substance | Surface Tension
n-fluoroalkanes | 25.9^1 dynes/cm
n-alkanes | 37.8^1 dynes/cm
